Some test systems named below: OVCAR-8; MCF7; Hs-578T; A549; NCI-H226; DU-145; T47D; Malme-3M; NCI-H522; SK-MEL-28; SK-MEL-2; A498; MOLT-4; K562; ACHN; U-251; LOX IMVI.
Common to all, as to assay: inhibition of tumour cell growth, NCI panel, 48 h

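Five compound concentrations were applied to cells in 96-well plates for 48 hours; endpoints were derived by simple linear interpolation of the resulting dose-response curve. GI50: concentration for 50% inhibition of growth.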 Activity calls are given as the source filed them. Cut-off read from the data, not from the text of the source: active = GI50 up to about 1.1 µM and inactive = higher.

For the compound `CO/C=C(/C(=O)OC)[C@@H]1C[C@@H]1c1ccc2ccccc2c1`, the GI50 with OVCAR-8 is 34 µM (inactive); in the test with MCF7, 30.3 µM (inactive); in the test on Hs-578T, 31.8 µM (inactive); in the test with A549, 18.7 µM (inactive); in the test on NCI-H226, 29.2 µM (inactive); in the test with DU-145 it was 38.9 µM (inactive). In addition, the GI50 with T47D is 20.9 µM (inactive); in the test with Malme-3M it was 20.2 µM (inactive); in the test with NCI-H522, 12 µM (inactive); in the test on SK-MEL-28 it was 23.4 µM (inactive); in the test with SK-MEL-2, 15.2 µM (inactive); with A498 it was 39.3 µM (inactive). Besides, the GI50 with MOLT-4 was 16.4 µM (inactive); in the test on K562, 23 µM (inactive); in the test with ACHN, 25.9 µM (inactive); in the test with U-251 it was 27.4 µM (inactive).
With `Clc1ccc(C(Cc2ccccc2)c2c(Cl)nc(N3CCNCC3)nc2Cl)cc1` (stereo not drawn), the GI50 in the test with OVCAR-8 is 12.1 µM (inactive); in the test with MCF7, 5.38 µM (inactive); in the test on Hs-578T, 14.8 µM (inactive); in the test on LOX IMVI, 3.46 µM (inactive); in the test on A549 it was 16.1 µM (inactive); with NCI-H226, 22.8 µM (inactive). Besides, the GI50 is 14.5 µM (inactive) in the test on DU-145; 12.8 µM (inactive) in the test on T47D; 14.3 µM (inactive) in the test with Malme-3M; 12.4 µM (inactive) in the test on NCI-H522; 13.7 µM (inactive) with SK-MEL-28; 16.8 µM (inactive) in the test with SK-MEL-2. Besides, the GI50 in the test on A498 was 11.9 µM (inactive); with MOLT-4, 4.01 µM (inactive); in the test on K562, 3.46 µM (inactive); in the test on ACHN it was 13.6 µM (inactive); with U-251, 14 µM (inactive).
Consider `COC(=O)C1(C)OC(C)=NC1(C(=O)OC)C(=O)OC` (stereo not drawn), for which the GI50 in the test with OVCAR-8, in the test on MCF7, in the test on Hs-578T, with LOX IMVI, in the test on A549 and with NCI-H226 was > 100 µM (inactive) each time. Also, the GI50 in the test on DU-145, in the test with T47D, with Malme-3M, in the test on SK-MEL-28, in the test on SK-MEL-2 and in the test on A498 was > 100 µM (inactive) throughout. Moreover, the GI50 with MOLT-4, in the test with K562, in the test with ACHN and in the test on U-251 was > 100 µM (inactive) throughout.
With `NC(=O)C(=O)c1ncn(Cc2ccccc2)c1N`, the GI50 in the test with OVCAR-8 was > 100 µM (inactive); with MCF7, > 100 µM (inactive); in the test with Hs-578T, > 100 µM (inactive); with LOX IMVI, 89.5 µM (inactive); in the test on A549, > 100 µM (inactive); in the test with NCI-H226 it was > 100 µM (inactive). In addition, the GI50 in the test with DU-145, in the test on T47D, in the test on Malme-3M, in the test with NCI-H522, in the test on SK-MEL-28 and in the test on SK-MEL-2 was > 100 µM (inactive) in each case. The GI50 in the test on A498, in the test with K562, in the test with ACHN and in the test on U-251 was > 100 µM (inactive) in each case.
As to `C/C(=C1\C(=O)C(c2ccccc2)N(c2ccccc2)C1=O)c1ccc(Cl)cc1` (stereo not drawn), the GI50 was 35.1 µM (inactive) in the test on MCF7; 18.7 µM (inactive) in the test on Hs-578T; 14.9 µM (inactive) in the test with LOX IMVI; 18.2 µM (inactive) with A549; 18.4 µM (inactive) in the test on NCI-H226; 18.7 µM (inactive) in the test with DU-145. The GI50 in the test on T47D was 19.4 µM (inactive); in the test on Malme-3M, 19.7 µM (inactive); in the test with NCI-H522, 18.2 µM (inactive); with SK-MEL-28, 16.3 µM (inactive); with SK-MEL-2, 20.1 µM (inactive); in the test on A498, 16.7 µM (inactive). For the same compound, the GI50 in the test on MOLT-4 was 31.6 µM (inactive); in the test with K562, 30.1 µM (inactive); in the test on ACHN, 19.3 µM (inactive); with U-251, 15.9 µM (inactive).
For `OC1=C(c2ccccc2)C2=NCCN2c2ccccc21`, the GI50 with OVCAR-8 was 51.1 µM (inactive); in the test with MCF7, 42.1 µM (inactive); in the test with Hs-578T, 28.1 µM (inactive); in the test on LOX IMVI, 31.7 µM (inactive); in the test on A549, 50.6 µM (inactive); with NCI-H226, 48.9 µM (inactive). For the same compound, the GI50 with DU-145 is 84.1 µM (inactive); with T47D, > 100 µM (inactive); in the test on SK-MEL-28, 79.6 µM (inactive); in the test with SK-MEL-2, 18.7 µM (inactive); with A498, 98.4 µM (inactive); in the test with MOLT-4 it was 46.8 µM (inactive). Moreover, the GI50 in the test on K562 was 21.8 µM (inactive); in the test on ACHN, 40.6 µM (inactive); with U-251 it was 73.5 µM (inactive).
Take `CC(C)C1=CC23CCC4C(C)(C(=O)O)CCCC4(C)C2CC1C1C(=O)N(CCCCCCN2C(=O)C4C5CC6C7(C)CCCC(C)(C(=O)O)C7CCC6(C=C5C(C)C)C4C2=O)C(=O)C13` (stereo not drawn): the GI50 in the test on OVCAR-8 is 9.2 µM (inactive); with MCF7, 6.76 µM (inactive); with Hs-578T, 12.3 µM (inactive); in the test on A549 it was 9.31 µM (inactive); in the test with NCI-H226, > 10 µM (inactive); in the test on DU-145, > 10 µM (inactive). Also, the GI50 in the test on T47D was 21.1 µM (inactive); with Malme-3M it was 16.7 µM (inactive); in the test with NCI-H522, 12 µM (inactive); with SK-MEL-28, 11.3 µM (inactive); in the test with SK-MEL-2, 13.8 µM (inactive); in the test on A498, 11.6 µM (inactive). The GI50 in the test with MOLT-4 was 6.17 µM (inactive); in the test on K562 it was 16.6 µM (inactive); in the test on ACHN, 10.9 µM (inactive); with U-251, 4.08 µM (inactive).
Consider `COc1ccc(CC2Cc3ccccc3CCN2)cc1OC` (stereo not drawn), for which the GI50 in the test with OVCAR-8 is > 50 µM (inactive); in the test with MCF7, > 50 µM (inactive); with Hs-578T, 23.8 µM (inactive); in the test with LOX IMVI it was 38.5 µM (inactive); in the test with A549 it was 29.8 µM (inactive); in the test on NCI-H226, 12.1 µM (inactive). For the same compound, the GI50 was > 50 µM (inactive) in the test with DU-145; 46.5 µM (inactive) in the test on T47D; 25.5 µM (inactive) in the test with Malme-3M; 19.3 µM (inactive) in the test on SK-MEL-28; > 50 µM (inactive) with SK-MEL-2; > 50 µM (inactive) in the test on A498. The GI50 with MOLT-4 was 20.3 µM (inactive); with K562 it was 20 µM (inactive); with U-251, > 50 µM (inactive).
With `CC1C(c2ccc(N(C)C)cc2)c2cc3c(cc2OC1N1CCCC1)OCO3` (stereo not drawn), the GI50 in the test on OVCAR-8 is 70.3 µM (inactive); in the test with MCF7, 24.3 µM (inactive); with Hs-578T, 28.8 µM (inactive); in the test on LOX IMVI it was 38.2 µM (inactive); with A549, 45.3 µM (inactive); with DU-145, 66.2 µM (inactive). The GI50 in the test with T47D was 54.3 µM (inactive); in the test with Malme-3M, 40.7 µM (inactive); with NCI-H522, 29.5 µM (inactive); in the test on SK-MEL-28, > 72.8 µM (inactive); with SK-MEL-2, 30.5 µM (inactive); in the test with A498 it was 20.7 µM (inactive). The GI50 in the test with MOLT-4 was 48.8 µM (inactive); with K562, 32.5 µM (inactive); in the test on ACHN, > 72.9 µM (inactive); in the test with U-251, 34 µM (inactive).
Regarding `COc1ccc(C(=O)Oc2c(C#N)sc3c2c(=O)n(-c2ccccc2)c(=S)n3-c2ccccc2)cc1`, the GI50 with OVCAR-8 was 24.7 µM (inactive); with MCF7, 15 µM (inactive); with Hs-578T, 25.9 µM (inactive); with LOX IMVI it was 19.5 µM (inactive); with A549 it was 30.1 µM (inactive); with NCI-H226 it was 24.2 µM (inactive). Further, the GI50 with DU-145 was 33 µM (inactive); with T47D, 33.6 µM (inactive); with NCI-H522, 0.131 µM (active); with SK-MEL-28, 53.6 µM (inactive); with A498, 16.4 µM (inactive); with MOLT-4, 21 µM (inactive). The GI50 with K562 is 30.3 µM (inactive); in the test with ACHN, 40.7 µM (inactive); in the test with U-251 it was 25.8 µM (inactive).
For the compound `OCCN(CCO)c1ncnc2[nH]cnc12`, the GI50 in the test with OVCAR-8 is > 100 µM (inactive); in the test with MCF7, > 100 µM (inactive); in the test on Hs-578T, 53.6 µM (inactive); in the test with LOX IMVI it was > 100 µM (inactive); with A549 it was > 100 µM (inactive); in the test on NCI-H226, > 100 µM (inactive). For the same compound, the GI50 in the test with DU-145, in the test on T47D, in the test with Malme-3M, in the test with NCI-H522, with SK-MEL-28 and in the test with A498 was > 100 µM (inactive) in each case. The GI50 in the test with MOLT-4, with K562, in the test on ACHN and in the test with U-251 was > 100 µM (inactive) throughout.
Turning to `CC1(C)Oc2ccc3c(=O)cc(-c4ccc(F)cc4)oc3c2C1C(=O)O` (stereo not drawn), the GI50 in the test with OVCAR-8, in the test on MCF7, with Hs-578T, in the test with A549, in the test with NCI-H226 and in the test on DU-145 was > 100 µM (inactive) throughout. Further, the GI50 with T47D, with Malme-3M, in the test with NCI-H522, with SK-MEL-2, in the test with A498 and in the test on MOLT-4 was > 100 µM (inactive) each time. For the same compound, the GI50 in the test with K562 and in the test with U-251 was > 100 µM (inactive) each time.

(Values after ChEMBL document CHEMBL1201862, “PubChem BioAssay data set” (2004).)
